Here are results for 15 molecules from patent US20040175763A1, “Crohn's disease antibody-binding peptide and method of examining crohn's disease” (priority 2001, published 2004).

The test system of assay [1] is Crohn's disease antibody (serum antibodies). The assay can be described thus: MAP antigen-ELISA of TO3965 peptide (Example 7(4)). The format is binding, human. To be noted: for reactions with ulcerative colitis patient sera and healthy volunteer sera: 20 ulcerative colitis, 20 healthy volunteer serum samples. Here is the method: At this junction, in order to endorse the assumption that rice allergen proteins are proteins simulated or mimicked by CDP4 peptide, a peptide (TO3965 peptide) having an amino acid sequence corresponding to the 99-111 amino acid region of Rice seed allergen RA14 (FIG. 16) was prepared in the form of a MAP peptide and the MAP antigen-ELISA was performed using 20 Crohn's disease patient serum samples, 20 ulcerative colitis patient serum samples, and 20 healthy volunteer serum samples.
Except that a MAP antigen plate prepared by immobilizing the MAP peptide of TO3965 on the plate was used as the antigen plate, the MAP antigen-ELISA was carried out in otherwise the same manner as in Example 6(4).

In assay [2] the test system is Crohn's disease antibody. The experiment in a line: Reaction inhibition test with one amino acid-substituted MAP peptides on CDP3 MAP plate (Example 6(2)). It counts as binding, human. To be noted: inhibitor MAP peptide 100 μg/mL. Here is the method:
Referring to the amino acid sequence of CDP peptide, in order to determine the sequence necessary for the specific reactivity to Crohn's disease antibody, the following reaction inhibition test was performed using each of the one amino acid-substituted MAP peptides prepared as above as the reaction inhibitor.
More particularly, using the MAP plate prepared by immobilizing the MAP peptide of CDP3 (see Example 2(1)) as the antigen plate, the test was performed by 3 reaction steps. In the primary reaction, the Crohn's disease patient serum was diluted 100-fold with a sample diluent containing the one amino acid-substituted MAP peptide in a concentration of 100 μg/mL (0.1 M Tris-buffer containing 0.5 M sodium chloride, 1.5% casein, 2% normal goat serum and 0.2% Tween 20) and reacted at 25° C. for one hour. In the secondary reaction, 100 μL/well of the primary reaction mixture was added to the plate and reacted at 25° C. for one hour, after which the plate was washed 3 times. In the tertiary reaction, 100 μL/well of HRP-labeled anti-human IgG (Fc)-specific antibody diluted 5,000-fold in an enzyme-labeled antibody diluent (Tris buffer containing 0.14 M sodium chloride, 0.5% BAS, 5% normal goat serum and 0.05% Tween 20) was added to the plate, and reacted at 25° C. for 1 hour, followed by 3 rounds of washing. Detection was performed as in Example 2(1) to measure the reaction-inhibiting activity of the one amino acid-substituted MAP peptide.

Assay [3] deals with Crohn's disease antibody (serum antibodies). The assay can be described thus: MAP antigen-ELISA of Z300 peptide (Example 6(4)). It counts as binding, human. On the procedure:
Therefore, in order to confirm that human nuclear protein (HZF300) is a protein simulated or mimicked by CDP3 peptide, the peptide (Z300 peptide) having the amino acid sequence of the 126-138 amino acid region of HZF300 was prepared in the form of a MAP peptide and the MAP antigen ELISA was carried out using 20 Crohn's disease patient serum samples, 20 ulcerative colitis patient serum samples, and 20 healthy volunteer serum samples.
First, each human serum was diluted 101-fold with the sample diluent (described hereinbefore) and 100 μL/well of the solution was added to the MAP plate prepared by immobilizing the said MAP peptide. Then, the procedure of the secondary reaction and subsequent operation described in Example 6(2) was followed to investigate the reactivity of the MAP peptide to various kinds of serum antibodies.

The subject of assay [4] is Crohn's disease antibody (serum IgG). The assay can be described thus: MAP peptide ELISA of CDP-1a, CDP-5a and VATE-201 (Example 4). The format is binding, human. As to conditions: 20 Crohn's disease, 20 ulcerative colitis, 20 healthy volunteer serum samples. From the text:
Therefore, the following peptides (CDP-1a peptide, CDP-5a peptide, VATE-201 peptide) were respectively synthesized in the MAP form (multiple antigenic peptides) by the same procedure as described in Example 1(3) (FIG. 9), and in accordance with the protocol of Example 2(1), the reactivity of each MAP peptide to various serum samples (Crohn's disease patient sera, ulcerative colitis patient sera and healthy volunteer sera) was investigated by ELISA.
As test sera, 20 Crohn's disease patient serum samples were used and, as control sera, 20 ulcerative colitis serum samples and 20 healthy volunteer serum samples were used.

Assay [5] has as its system Crohn's disease antibody. The experiment in a line: Test for inhibition of the antigen-antibody reaction between CDP3 peptide and Crohn's disease antibody using Z300 peptide (Example 6(5)). The format is binding, human. To be noted: sera No. 2, No. 7, No. 8; inhibitor 100 μg/ml. Here is the method: To verify the reactivity of Z300 peptide to Crohn's disease antibodies, a test for inhibition of the antigen-antibody reaction between CDP3 peptide and Crohn's disease antibody was performed using Z300 peptide.
More particularly, the MAP plate prepared by immobilizing the MAP peptide of CDP3 on a plate (Example 2(1)) was used. To 100 μL of the sample diluent containing 100 μg/ml of Z300 MAP peptide (reaction inhibitor) was added 1 μL of the serum sample and the reaction was carried out at 25° C. for one hour. The whole amount of this reaction mixture was added to the plate and ELISA was performed in the same manner as in Example 6(2). As a comparative experiment, ELISA was similarly performed using the MAP peptide of CDP3, in lieu of the MAP peptide of Z300, as said reaction inhibitor.

Assay [6] deals with Crohn's disease patient serum antibody. The experiment in a line: Phage ELISA of CD-binding peptide display phage clones with serum samples. Also noted: species or system human. To be noted: 20 Crohn's disease, 20 ulcerative colitis, 20 healthy volunteer serum samples. Here is the method: Using the monoclonal CD-binding peptide display phage obtained as above, phage ELISA was carried out with the same healthy volunteer serum pool and Crohn's disease patient serum pool as used in the above biopanning (cf. (i)).
In the ELISA, an anti-phage antibody (Pharmacia) was immobilized on a 96-well microtiter plate in the first place. Specifically, this immobilization was carried out by adding an anti-phage antibody (Pharmacia) solution prepared in a 1 μg/ml concentration with (D)-PBS, to the plate, 100 μl per well. The plate was left sitting at 4° C. overnight and then washed, and after addition of 300 μl of blocking solution ((D)-PBS containing 1% BSA and 5% sorbitol), further left sitting at 4° C. overnight.
The primary reaction was carried out as follows. Thus, 10 μl of the phage solution in (ii) was added to 90 μl of phage ELISA buffer ((D)-PBS containing 1% BSA, 0.05% Tween 20 and 10% normal goat serum), the mixture was added to each well coated with said anti-phage antibody, and the reaction was conducted at 37° C. for 1 hour. After completion of the primary reaction, the plate was washed 4 times and the secondary reaction was carried out. The secondary reaction was performed by adding the mixture containing 1 μl of serum (healthy volunteer serum or Crohn's disease patient serum) and 100 μl of phage ELISA buffer, to each well, and allowing the reaction to proceed at 37° C. for 1 hour. After completion of the secondary reaction, the plate was washed 4 times and the tertiary reaction was carried out. The tertiary reaction was conducted by adding HRP (horseradish peroxidase)-labeled anti-human IgG (Fc)-specific antibody, diluted 40,000-fold in phage ELISA buffer (20 ng/ml) in advance, to the plate, 100 μl per well, and allowing the reaction to proceed at 37° C. for one hour. After completion of the tertiary reaction, the plate was washed and a color development reaction was carried out. The color development was conducted by adding TMB (3,3′,5,5′-tetramethylbenzidine) solution to the plate, allowing the reaction to proceed at room temperature for 10 minutes, and stopping the reaction with a stopper (1N sulfuric acid). The plate after reaction stopping was measured for absorbance (OD 450 nm) with a plate reader to evaluate the reactivity with the serum antibody.
For the 5 clones thus selected, the reactivity (ELISA) with the respective serum samples (Crohn's disease patient serum, ulcerative colitis patient serum, and healthy volunteer serum) was evaluated.

In assay [7] the test system is Crohn's disease antibody. The experiment in a line: Test for inhibition of the antigen-antibody reaction between CDP-1a peptide and Crohn's disease antibody (Example 5). The format is binding, human. As to conditions: sera No. 8, No. 9, No. 14; reaction inhibitor 100 μg/ml. On the procedure:
To confirm the reactivity of VATE-201 obtained in Example 4, a test for inhibition of the antigen-antibody reaction between CDP-1a peptide and Crohn's disease antibody was carried out using VATE-201 peptide.
More particularly, the MAP plate prepared by immobilizing CDP-1a MAP peptide was used as the antigen plate (see Example 2(1)). On the other hand, 1 μL of each serum sample was added to 100 μL of a casein solution ((D)-PBS containing 0.1% casein and 1% Triton X-100) containing the MAP peptide of VATE-201 (reaction inhibitor) at a concentration of 100 μg/ml and the reaction was carried out at 37° C. for one hour. The whole amount of the reaction mixture thus obtained was added to the above MAP plate and ELISA was performed in the same manner as in Example 2(1). As a comparative experiment, using the MAP peptide of CDP-1a in lieu of the MAP peptide of VATE-201 as said reaction inhibitor, ELISA was carried out in otherwise the same manner.

Assay [8] relates to Crohn's disease antibody. The assay can be described thus: Test for inhibition of the antigen-antibody reaction between CDP4 peptide and Crohn's disease antibody using TO3965 peptide (Example 7(5)). It counts as binding, human. To be noted: sera Nos. 3, 6, 15, 17 and 20. On the procedure: To confirm the reactivity of TO3965 peptide to Crohn's disease antibody, a test for inhibition of the antigen-antibody reaction between CDP4 peptide and Crohn's disease antibody was performed using TO3965 peptide as a reaction inhibitor as in Example 6(5).

For assay [9], the target named is Crohn's disease patient serum No. 2 (serum antibody). The experiment in a line: inhibition ELISA; serum pre-incubated with 100 ug/mL MAP peptide, then CDP3 MAP plate; grade of reaction-inhibiting activity.
In assay [10] the target is Crohn's disease patient serum No. 7 (serum antibody). The assay is described as above.
For assay [11], the target named is Crohn's disease patient serum No. 8 (serum antibody). The assay is described as above.

No end group written: not given here.

For “CDP4: equivalent of CD4 peptide, SEQ ID NO:34 (AEGELGGIYQDLVS; Phage Library)”, the “reactions with ulcerative colitis patient sera and healthy volunteer sera” value (“reactions” for short) in assay [1] is “did not show definite reactions”. Also, in [1] (Crohn's disease patient serum Nos. 3, 6, 15, 17 and 20), the “reactivity of Crohn's disease patient sera to the peptide” value is recorded as “strong reactivity”.

“A E G E L R Q S D G Q Y Q M (AEGELRQSDGQYQM) [CDP3]”: in the assay with Crohn's disease antibody [2], the “reaction-inhibiting activity, Patient serum sample No. 2” value was “+++ (+++: reaction-inhibiting activity = 70%)”; the “reaction-inhibiting activity, Patient serum sample No. 7” value was “+++ (+++: reaction-inhibiting activity = 70%)”; the “reaction-inhibiting activity, Patient serum sample No. 8” value is “+++ (+++: reaction-inhibiting activity = 70%)”. Also, the “reactivity of Crohn's disease patient sera to the peptide” value in [3] (Crohn's disease patient serum No. 2, No. 7 and No. 8) is “strong reactivity”. Take AEGELRLVGQQVMQGDP [CDP-5a]: the “ELISA reactivity to serum samples” value in [4] was “ELISA reactivities mutually alike”.

With AEGELGLLAQQMDYADP [CDP-1a], in [4], the “ELISA reactivity to serum samples” value was “ELISA reactivities mutually alike”.

Consider “Z300: peptide having the amino acid sequence of the 126-138 amino acid region of HZF300, SEQ ID NO:31 (LVCQGDGQLQRFL; Kruppel-like Zinc Finger Protein 300; listed as Homo sapiens)”, for which the “reactions” value in assay [3] (20 ulcerative colitis, 20 healthy volunteer serum samples) is reported as “did not show definite reactions”. Further, the “inhibition of the reactivity of Crohn's disease patient sera to the CDP3 MAP plate” value in the assay with Crohn's disease antibody [5] is “inhibited the reactivity of all Crohn's disease patient sera”. Regarding AEGEL GLLAQQMDY ADPA [CD-1], the “specificity to Crohn's disease patient serum (phage ELISA reactivity)” value (from here on “specificity”) in assay [6] is on record as “high specificity to Crohn's disease patient serum”. As to RLDLIAQQMMPEVR [VATE-201], the “ELISA reactivity to serum samples” value in assay [4] was “ELISA reactivities mutually alike”. Further, the “inhibition of the reactivity of Crohn's disease serum samples with the CDP-1a MAP plate” value in the assay with Crohn's disease antibody [7] was “invariably inhibited the reactivity”.

AEGEL RLVGQQVMQ GDPA [CD-5]: in assay [6], the “specificity” value is “high specificity to Crohn's disease patient serum”. As for “TO3965: peptide with the amino acid sequence of the 99-111 amino acid region of Rice seed allergen RA14, SEQ ID NO:42 (HMVGGIYRELGAT; Rice; Rice Seel Allergen RA14)”, the “inhibition of the reactivity of Crohn's disease patient serum samples to the CDP4 MAP plate” value with Crohn's disease antibody [8] was “inhibition everything of the reactivity”. Besides, the “reactions” value in [1] is given as “did not show definite reactions”.

As for AEGEL RQSDGQYQM GDPA [CD-3], in assay [6], the “specificity” value is listed as “high specificity to Crohn's disease patient serum”. For the molecule AEGEL YRWLPPSSA GDPA [CD-2], in assay [6], the “specificity” value is on record as “high specificity to Crohn's disease patient serum”. For AEGELRQSDAQYQM (also: MAP: 8 copies as branches on a lysine core) [MAP peptide of CDP3-10], the reaction-inhibiting activity in assay [9] lay within 30 to 50%. In [10], AEGELRQSDGAYQM (also: MAP: 8 copies as branches on a lysine core) [MAP peptide of CDP3-11] had a reaction-inhibiting activity of 30 to 50%. With AEGELRQSDGQYAM (also: MAP: 8 copies as branches on a lysine core) [MAP peptide of CDP3-13], the reaction-inhibiting activity is 50 to 70% in assay [11] and 30 to 50% in assay [9]. On to AEGELRQSAGQYQM (also: MAP: 8 copies as branches on a lysine core) [MAP peptide of CDP3-9], for which, in assay [10], the reaction-inhibiting activity lay within 30 to 50%.
